Test results reported in US20240116910A1, “Heterocycles as WIP1 Inhibitors” (PMV Pharmaceuticals, Inc., priority 2022, published 2024).

How the values were obtained:
[1] = target: recombinant His-tag Wip1(2-420) protein (amino acids #2-420) (Homo sapiens (Human), UniProt O15297); test: Wip1(2-420) phosphatase enzyme FDP assay; assay type: biochemical; conditions: fluorescein diphosphate (FDP) substrate, RT 2 hours, fluorescence Ex485/Em535; read-out: WIP1 (Truncated 2-420) FDP Assay: IC50
[2] = target: recombinant His-tag Wip1 full length protein (amino acids #1-605) (Homo sapiens (Human), UniProt O15297); test: Wip1 full length phosphatase enzyme FDP assay; assay type: biochemical; conditions: fluorescein diphosphate (FDP) substrate, RT 2 hours, fluorescence Ex485/Em535
Experimental: The Human Wip1 (2-420, aa 2-420) or Wip1 full length (aa 1-605) DNA sequence was codon optimized and synthesized by Genscript for insect cell expression. The open reading frame of Wip1(2-420) with a N-terminal-His6 affinity tag followed by a TEV cleavage site was subcloned sites into the pFastBac1 expression vector. The recombinant bacmid DNA was transfected in Sf9 insect cells for baculovirus production. After 72 hours infection, the Sf9 cells were harvested by centrifugation and resuspended in lysis buffer containing 50 mM Tris/HCl, pH 8.0, 500 mM NaCl, 20% glycerol, Benzonase 0.5% CHAPS and Roche cOmplete™ EDTA free protease inhibitors. Cells were disrupted with microfluidizer and the debris was removed by centrifugation at 185,000 g for 1 hour. The supernatant was subjected to HisTrap FF for affinity purification. Proteins were eluted with a linear gradient of 0-500 mM imidazole in HisTrap buffer containing 50 mM Tris/HCl, pH 8.0, 500 mM NaCl and 20% glycerol, 0.05% CHAPS. The eluted protein was dialyzed against dialysis buffer (20 mM MES, 100 mM NaCl, 20% glycerol, 0.5 mM TCEP, 0.05% CHAPS) followed purification via HiTrap SP HP column. The protein was eluted with a gradient of 100 mM-2 M NaCl in dialysis buffer. His6-[…] was finally concentrated and loaded onto a size-exclusion column (NiLoad 16/600 Superdex 200 pg, GE Healthcare) pre-equilibrated with 50 mM MOPS (pH 7.5), 200 mM NaCl, 20% glycerol, 1 mM TCEP, 0.05% CHAPS and 0.1 mM EGTA. The peak fractions containing purified Nis6-Wip1(2-420) were pooled and concentrated to 1.0 mg/mL and flash frozen at −80° C.
Wip1 Length and Wip1(2-420) Phosphatase Enzyme FDP Assays.
Test compounds (252 mM stock in DMSO) were diluted 3 folds in series in DMSO and 1.2 μl per well were added into 384-well polypropylene black plates (Nunc). Twelve μl per well of Assay Buffer (100 mM NaCl, 50 mM MOPS, pH 7.5, 0.8 mM CHAPS, 0.1 mM EGTA, 30 mM MgCl2, 0.3 mM TCEP, 0.2 mg/mL BSA) was added followed by […] per well of 50.4 nM recombinant His-tag Wip1 full length protein (amino acids #1-605) or recombinant His-tag Wip1(2-420) protein (amino acids #2-420) in Assay Buffer and the plate was incubated at RT (22° C.) for 5 min. Ten mM of fluorescein diphosphate (FDP) in DMSO was diluted to […] in Assay Buffer and […] per well was added to the plate and incubated at RT (22° C.) for 2 hours. […] per well of 64.1 mM EDTA in water were added to stop the enzyme reaction. The plate was centrifuged at 1,200 rpm (Eppendorf 5810R Plate centrifuge) for 1 minute and fluorescence intensity (Ex485/Em535) was measured on Perkin Elmer Victor Reader. EC50 values were calculated using either Prism (GraphPad) or ActivityBase software (IDBS), The IC50 results are provided in Table M.

Chain of recombinant His-tag Wip1(2-420) protein (amino acids #2-420) (O15297 2-420): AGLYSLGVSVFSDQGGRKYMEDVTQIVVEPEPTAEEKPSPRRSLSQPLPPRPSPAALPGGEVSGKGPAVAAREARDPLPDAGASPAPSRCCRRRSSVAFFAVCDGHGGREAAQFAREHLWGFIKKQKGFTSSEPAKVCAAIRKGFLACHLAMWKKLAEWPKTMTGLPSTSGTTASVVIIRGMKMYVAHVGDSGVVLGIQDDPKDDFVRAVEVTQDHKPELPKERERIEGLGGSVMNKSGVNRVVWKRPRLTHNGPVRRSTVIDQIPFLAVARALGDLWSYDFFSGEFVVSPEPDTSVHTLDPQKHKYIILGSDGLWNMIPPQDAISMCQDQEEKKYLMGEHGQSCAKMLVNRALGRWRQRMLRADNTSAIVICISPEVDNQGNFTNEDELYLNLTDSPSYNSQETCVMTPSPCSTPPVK
Chain of recombinant His-tag Wip1 full length protein (amino acids #1-605) (O15297 whole entry, the tested form may be a part): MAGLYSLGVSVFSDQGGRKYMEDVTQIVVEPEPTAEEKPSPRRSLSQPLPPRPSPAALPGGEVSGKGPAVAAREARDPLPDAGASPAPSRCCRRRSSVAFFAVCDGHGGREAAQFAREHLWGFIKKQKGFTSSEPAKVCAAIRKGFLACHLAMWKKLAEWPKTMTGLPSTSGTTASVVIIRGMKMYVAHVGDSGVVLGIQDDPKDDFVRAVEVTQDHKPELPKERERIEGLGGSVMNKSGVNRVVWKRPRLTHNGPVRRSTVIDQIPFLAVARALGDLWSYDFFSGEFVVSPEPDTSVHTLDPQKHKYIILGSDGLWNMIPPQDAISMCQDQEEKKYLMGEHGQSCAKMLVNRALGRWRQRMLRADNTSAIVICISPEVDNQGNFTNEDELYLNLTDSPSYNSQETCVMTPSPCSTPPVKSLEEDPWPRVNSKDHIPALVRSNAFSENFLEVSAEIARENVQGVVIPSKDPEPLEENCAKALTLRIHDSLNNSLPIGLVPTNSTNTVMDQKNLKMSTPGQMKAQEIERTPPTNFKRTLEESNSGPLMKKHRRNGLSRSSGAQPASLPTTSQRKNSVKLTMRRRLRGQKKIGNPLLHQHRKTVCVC

IC50 [1] [nM]	IC50 [2] [nM]	SMILES
6	9	C[C@@H](Nc1cccc(Cl)c1)c1ccc(C(=O)N[C@@H](CC2CCCC2)C(=O)NC2CC2)s1 [Compound 1, 5-[1-(3-chloroanilino)ethyl]-N-[(1S)-1-(cyclopentylmethyl)-2-(cyclopropylamino)-2-oxo-ethyl]thiophene-2-carboxamide]
232	117	C[C@H](Nc1cccc(Cl)c1)c1ccc(C(=O)N[C@@H](CC2CCCC2)C(=O)NC2CC2)s1 [Compound 2, 5-[(1S)-1-(3-chloroanilino)ethyl]-N-[(1S)-1-(cyclopentylmethyl)-2-(cyclopropylamino)-2-oxo-ethyl]thiophene-2-carboxamide]
60	28	CC(Nc1ccc(F)c(Cl)c1)c1ccc(C(=O)N[C@@H](CC2CCCC2)C(=O)NC2CC2)s1 (stereo partly drawn) [Compound 3, 5-[1-(3-chloro-4-fluoro-anilino)ethyl]-N-[(1S)-1-(cyclopentylmethyl)-2-(cyclopropylamino)-2-oxo-ethyl]thiophene-2-carboxamide]
79	15	CC(Nc1cccc(Cl)c1)c1ccc(C(=O)N[C@@H](CC2CCCC2)C(=O)NC2CC2)s1 (stereo partly drawn) [Compound 4, 5-[1-(3-chloroanilino)ethyl]-N-[(1S)-1-(cyclopentylmethyl)-2-(cyclopropylamino)-2-oxo-ethyl]thiophene-2-carboxamide]
6	9	C[C@H](Nc1ccc(F)c(Cl)c1)c1ccc(C(=O)N[C@@H](CC2CCCC2)C(=O)NC2CC2)s1 [Compound 6, 5-[(1S)-1-(3-chloro-4-fluoro-anilino)ethyl]-N-[(1S)-1-(cyclopentylmethyl)-2-(cyclopropylamino)-2-oxo-ethyl]thiophene-2-carboxamide]
13	–	Cc1ncc(Cl)cc1N[C@@H](C)c1ccc(C(=O)N[C@@H](CC2CCCC2)C(=O)NC2CCC(O)C2)s1 (stereo partly drawn) [Compound 263, (2S)-2-({5-[(1S)-1-[(5-chloro-2-methylpyridin-3-yl)amino]ethyl]thiophen-2-yl}formamido)-3-cyclopentyl-N-(3-hydroxycyclopentyl)propanamide]
7	–	CCNC(=O)[C@H](CC1CCCCC1)NC(=O)c1ccc([C@H](C)Nc2cc(Cl)cnc2C)s1 [Compound 264, (2S)-2-({5-[(1S)-1-[(5-chloro-2-methylpyridin-3-yl)amino]ethyl]thiophen-2-yl}formamido)-3-cyclohexyl-N-ethylpropanamide]
8	–	CNC(=O)[C@H](CC1CCCCC1)NC(=O)c1ccc([C@H](C)Nc2cc(Cl)cnc2C)s1 [Compound 265, (2S)-2-({5-[(1S)-1-[(5-chloro-2-methylpyridin-3-yl)amino]ethyl]thiophen-2-yl}formamido)-3-cyclohexyl-N-methylpropanamide]
20	–	Cc1ncc(Cl)cc1NC(C)(C)c1ccc(C(=O)N[C@@H](CC2CCCC2)C(=O)NC23CC(C#N)(C2)C3)s1 [Compound 266, (2S)-2-[(5-{2-[(5-chloro-2-methylpyridin-3-yl)amino]propan-2-yl}thiophen-2-yl)formamido]-N-{3-cyanobicyclo[1.1.1]pentan-1-yl}-3-cyclopentylpropanamide]
10	–	COc1cccc(-c2ncc(Cl)cc2N[C@@H](C)c2ccc(C(=O)N[C@@H](CC3CCCC3)C(=O)NC3CC3)s2)c1 [Compound 267, (2S)-2-({5-[(1S)-1-{[5-chloro-2-(3-methoxyphenyl)pyridin-3-yl]amino}ethyl]thiophen-2-yl}formamido)-3-cyclopentyl-N-cyclopropylpropanamide]
482	–	COc1cccc(-c2ncc(Cl)cc2N[C@H](C)c2ccc(C(=O)N[C@@H](CC3CCCC3)C(=O)NC3CC3)s2)c1 [Compound 268, (2S)-2-({5-[(1R)-1-{[5-chloro-2-(3-methoxyphenyl)pyridin-3-yl]amino}ethyl]thiophen-2-yl}formamido)-3-cyclopentyl-N-cyclopropylpropanamide]
14	–	C[C@H](Nc1cc(Cl)cnc1C(=O)O)c1ccc(C(=O)N[C@@H](CC2CCCC2)C(=O)NC2CC2)s1 [Compound 269, 5-chloro-3-{[(1S)-1-(5-{[(1S)-2-cyclopentyl-1-(cyclopropylcarbamoyl)ethyl]carbamoyl}thiophen-2-yl)ethyl]amino}pyridine-2-carboxylic acid]
6	–	Cc1cc(NC(=O)[C@H](CC2CCCC2)NC(=O)c2ccc(C(C)(C)Nc3cc(Cl)cnc3C)s2)ccn1 [Compound 270, (2S)-2-[(5-{2-[(5-chloro-2-methylpyridin-3-yl)amino]propan-2-yl}thiophen-2-yl)formamido]-3-cyclopentyl-N-(2-methylpyridin-4-yl)propanamide]
10	–	Cc1ncc(Cl)cc1N[C@@H](C)c1ccc(C(=O)N[C@@H](CC2CCCC2)C(=O)NCCF)s1 [Compound 271, (2S)-2-({5-[(1S)-1-[(5-chloro-2-methylpyridin-3-yl)amino]ethyl]thiophen-2-yl}formamido)-3-cyclopentyl-N-(2-fluoroethyl)propanamide]
14	–	Cc1ncc(Cl)cc1N[C@@H](C)c1ccc(C(=O)N[C@@H](C[C@H]2CCC3C[C@@H]32)C(=O)NC2CC2)s1 (stereo partly drawn) [Compound 272, (2S)-3-[(2R)-bicyclo[3.1.0]hexan-2-yl]-2-({5-[(1S)-1-[(5-chloro-2-methylpyridin-3-yl)amino]ethyl]thiophen-2-yl}formamido)-N-cyclopropylpropanamide]
811	–	C[C@@H](Nc1cc(Cl)cnc1C(=O)O)c1ccc(C(=O)N[C@@H](CC2CCCC2)C(=O)NC2CC2)s1 [Compound 274, 5-chloro-3-{[(1R)-1-(5-{[(1S)-2-cyclopentyl-1-(cyclopropylcarbamoyl)ethyl]carbamoyl}thiophen-2-yl)ethyl]amino}pyridine-2-carboxylic acid]
10	–	Cc1ncc(Cl)cc1NC(C)(C)c1ccc(C(=O)N[C@@H](CC2CCCC2)C(=O)N[C@H]2C[C@H](F)C2)s1 [Compound 275, (2S)-2-[(5-{2-[(5-chloro-2-methylpyridin-3-yl)amino]propan-2-yl}thiophen-2-yl)formamido]-3-cyclopentyl-N-[(1r,3r)-3-fluorocyclobutyl]propanamide]
5	–	COc1ccc(NC(=O)[C@H](CC2CCCC2)NC(=O)c2ccc([C@H](C)Nc3cc(Cl)cnc3C)s2)cn1 [Compound 276, (2S)-2-({5-[(1S)-1-[(5-chloro-2-methylpyridin-3-yl)amino]ethyl]thiophen-2-yl}formamido)-3-cyclopentyl-N-(6-methoxypyridin-3-yl)propanamide]
1020	–	Cc1ncc(Cl)cc1N[C@@H](C)c1ncc(C(=O)N[C@@H](CC2CCCC2)C(=O)NC23CC(C2)C3)s1 [Compound 310, (2S)-N-{bicyclo[1.1.1]pentan-1-yl}-2-({2-[(1S)-1-[(5-chloro-2-methylpyridin-3-yl)amino]ethyl]-1,3-thiazol-5-yl}formamido)-3-cyclopentylpropanamide]
1550	–	Cc1ncc(Cl)cc1N[C@@H](C)c1ncc(C(=O)N[C@@H](CC2CCCC2)C(=O)NC2CC2)s1 [Compound 311, (2S)-2-({2-[(1S)-1-[(5-chloro-2-methylpyridin-3-yl)amino]ethyl]-1,3-thiazol-5-yl}formamido)-3-cyclopentyl-N-cyclopropylpropanamide]

SMILES	IC50 [1] [nM]	IC50 [2] [nM]
Cc1ncc(Cl)cc1NC(C)c1ccc(C(=O)N[C@@H](CC2CCCC2)C(=O)NC2CC2)s1 (stereo partly drawn) [Compound 5, 5-[1-[(5-chloro-2-methyl-3-pyridyl)amino]ethyl]-N-[(1S)-1-(cyclopentylmethyl)-2-(cyclopropylamino)-2-oxo-ethyl]thiophene-2-carboxamide]	13	24
